Structures are written as SMILES. Some results are limits rather than exact numbers.

For assay [1], the target named is T1, Adenosine receptor A1 (Homo sapiens, UniProt P30542).
T1 sequence (P30542 whole entry): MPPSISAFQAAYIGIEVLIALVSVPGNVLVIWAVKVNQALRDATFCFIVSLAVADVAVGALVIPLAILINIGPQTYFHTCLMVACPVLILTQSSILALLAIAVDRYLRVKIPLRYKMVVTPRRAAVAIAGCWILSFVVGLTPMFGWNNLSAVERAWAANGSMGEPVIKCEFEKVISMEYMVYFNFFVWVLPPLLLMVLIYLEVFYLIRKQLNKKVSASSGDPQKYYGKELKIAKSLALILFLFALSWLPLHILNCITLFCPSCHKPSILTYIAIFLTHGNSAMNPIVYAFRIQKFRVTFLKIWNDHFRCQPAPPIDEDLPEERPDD

The target of assay [2] is T2, Gastrin/cholecystokinin type B receptor (Homo sapiens, UniProt P32239).
T2 sequence (P32239 whole entry): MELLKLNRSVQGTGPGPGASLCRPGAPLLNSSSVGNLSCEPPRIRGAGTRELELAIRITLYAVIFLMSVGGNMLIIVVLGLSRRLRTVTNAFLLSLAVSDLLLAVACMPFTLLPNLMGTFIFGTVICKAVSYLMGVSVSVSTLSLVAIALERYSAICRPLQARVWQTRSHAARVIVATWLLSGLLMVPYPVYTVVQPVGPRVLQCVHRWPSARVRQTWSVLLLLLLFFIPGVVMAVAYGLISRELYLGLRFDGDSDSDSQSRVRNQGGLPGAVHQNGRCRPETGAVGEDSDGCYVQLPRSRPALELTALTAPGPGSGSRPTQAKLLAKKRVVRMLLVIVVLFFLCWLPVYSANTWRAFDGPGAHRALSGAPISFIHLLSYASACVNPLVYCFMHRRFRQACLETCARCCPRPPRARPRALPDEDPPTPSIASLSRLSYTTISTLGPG

Assay [3] deals with T3, Muscarinic acetylcholine receptor M2 (Homo sapiens, UniProt P08172).
T3 sequence (P08172 whole entry): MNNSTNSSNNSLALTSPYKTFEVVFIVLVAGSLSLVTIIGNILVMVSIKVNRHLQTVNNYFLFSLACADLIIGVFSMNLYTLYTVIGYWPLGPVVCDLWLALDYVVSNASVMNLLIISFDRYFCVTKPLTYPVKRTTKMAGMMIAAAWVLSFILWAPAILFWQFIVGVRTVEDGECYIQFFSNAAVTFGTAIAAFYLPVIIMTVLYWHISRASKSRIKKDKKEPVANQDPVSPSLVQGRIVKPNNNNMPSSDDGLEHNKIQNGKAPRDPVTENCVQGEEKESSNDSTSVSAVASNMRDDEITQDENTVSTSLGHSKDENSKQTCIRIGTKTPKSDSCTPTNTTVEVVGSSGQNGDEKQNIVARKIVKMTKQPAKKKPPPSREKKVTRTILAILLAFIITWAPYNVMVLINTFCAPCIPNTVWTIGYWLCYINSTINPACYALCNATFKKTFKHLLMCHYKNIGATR
It counts as functional, cell-based.

Assay [4] concerns the target T4, 5-hydroxytryptamine receptor 1A (Homo sapiens, UniProt P08908).
T4 sequence (P08908 whole entry): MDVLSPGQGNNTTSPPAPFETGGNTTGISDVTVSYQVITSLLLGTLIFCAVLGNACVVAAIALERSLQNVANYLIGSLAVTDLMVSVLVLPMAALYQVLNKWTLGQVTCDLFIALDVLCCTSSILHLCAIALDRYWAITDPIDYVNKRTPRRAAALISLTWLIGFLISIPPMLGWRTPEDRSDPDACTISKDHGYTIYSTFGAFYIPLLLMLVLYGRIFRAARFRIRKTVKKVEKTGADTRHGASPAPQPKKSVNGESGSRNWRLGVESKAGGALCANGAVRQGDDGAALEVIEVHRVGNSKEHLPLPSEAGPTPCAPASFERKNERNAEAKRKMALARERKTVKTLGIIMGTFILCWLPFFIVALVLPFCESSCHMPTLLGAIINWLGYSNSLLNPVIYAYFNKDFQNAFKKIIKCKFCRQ
It counts as functional, cell-based.

The target in assay [5] is T5, Glucocorticoid receptor (Homo sapiens, UniProt P04150).
T5 sequence (P04150 whole entry): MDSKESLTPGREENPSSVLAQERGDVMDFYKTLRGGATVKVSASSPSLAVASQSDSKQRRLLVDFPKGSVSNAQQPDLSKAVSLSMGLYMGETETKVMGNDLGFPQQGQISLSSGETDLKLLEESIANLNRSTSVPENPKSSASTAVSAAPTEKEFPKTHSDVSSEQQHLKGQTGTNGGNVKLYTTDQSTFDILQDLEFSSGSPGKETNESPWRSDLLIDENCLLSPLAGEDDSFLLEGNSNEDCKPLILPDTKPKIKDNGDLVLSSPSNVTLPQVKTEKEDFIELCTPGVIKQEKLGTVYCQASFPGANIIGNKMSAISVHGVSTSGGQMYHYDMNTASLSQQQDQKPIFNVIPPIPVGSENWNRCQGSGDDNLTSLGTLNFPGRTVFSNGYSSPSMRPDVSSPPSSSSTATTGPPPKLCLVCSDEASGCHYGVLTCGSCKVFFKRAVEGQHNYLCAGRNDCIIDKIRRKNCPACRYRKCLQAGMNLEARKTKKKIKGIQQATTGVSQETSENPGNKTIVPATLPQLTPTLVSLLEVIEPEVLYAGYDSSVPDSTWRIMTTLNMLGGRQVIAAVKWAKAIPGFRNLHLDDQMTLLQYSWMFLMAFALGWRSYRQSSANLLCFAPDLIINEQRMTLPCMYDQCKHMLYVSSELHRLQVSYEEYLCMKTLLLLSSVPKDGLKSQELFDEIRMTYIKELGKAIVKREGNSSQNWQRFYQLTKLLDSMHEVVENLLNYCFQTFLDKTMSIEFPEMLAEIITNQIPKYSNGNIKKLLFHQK

For assay [6], the target named is Sodium-dependent serotonin transporter (Homo sapiens, UniProt P31645).
Sequence of Sodium-dependent serotonin transporter (P31645 whole entry): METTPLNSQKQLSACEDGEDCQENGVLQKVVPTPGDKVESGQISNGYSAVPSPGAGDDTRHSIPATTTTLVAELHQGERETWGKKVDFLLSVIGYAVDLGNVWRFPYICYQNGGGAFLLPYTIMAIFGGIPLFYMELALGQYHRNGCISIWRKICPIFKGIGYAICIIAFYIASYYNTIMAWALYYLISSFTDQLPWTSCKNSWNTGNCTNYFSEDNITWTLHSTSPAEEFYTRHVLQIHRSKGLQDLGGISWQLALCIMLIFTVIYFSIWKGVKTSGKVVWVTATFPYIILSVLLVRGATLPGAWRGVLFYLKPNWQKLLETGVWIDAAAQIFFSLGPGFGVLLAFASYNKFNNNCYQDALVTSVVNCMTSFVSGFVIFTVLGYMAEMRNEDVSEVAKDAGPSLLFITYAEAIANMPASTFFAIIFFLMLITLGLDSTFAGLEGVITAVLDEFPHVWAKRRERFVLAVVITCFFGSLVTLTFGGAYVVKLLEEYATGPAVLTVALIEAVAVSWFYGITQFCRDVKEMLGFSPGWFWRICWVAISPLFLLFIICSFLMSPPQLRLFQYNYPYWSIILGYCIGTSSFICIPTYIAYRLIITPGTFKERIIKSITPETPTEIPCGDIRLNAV
For assay [7], the target named is 5-hydroxytryptamine receptor 2A (Homo sapiens, UniProt P28223). Type of assay: functional, cell-based.
Sequence of 5-hydroxytryptamine receptor 2A (P28223 whole entry): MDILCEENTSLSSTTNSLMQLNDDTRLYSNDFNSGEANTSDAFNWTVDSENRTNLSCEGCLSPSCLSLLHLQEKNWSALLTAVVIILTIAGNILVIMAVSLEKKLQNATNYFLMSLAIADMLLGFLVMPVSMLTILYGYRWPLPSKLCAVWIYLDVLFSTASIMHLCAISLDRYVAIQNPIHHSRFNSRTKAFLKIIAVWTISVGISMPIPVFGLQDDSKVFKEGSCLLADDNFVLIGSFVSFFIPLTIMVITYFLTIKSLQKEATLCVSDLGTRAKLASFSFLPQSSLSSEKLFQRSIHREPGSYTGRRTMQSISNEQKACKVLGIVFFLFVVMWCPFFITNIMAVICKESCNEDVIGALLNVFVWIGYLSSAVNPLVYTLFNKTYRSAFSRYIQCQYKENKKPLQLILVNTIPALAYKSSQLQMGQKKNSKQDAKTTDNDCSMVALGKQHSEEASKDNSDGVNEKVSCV
Note: assay procedure not described here.

`CCCCCCCC(=O)N[C@H](CN1CCCC1)[C@H](O)c1ccc2c(c1)OCCO2`: in assay [1], the AC50 was > 30 µM.
`C[C@]12CC[C@H](O)CC1=CC[C@@H]1[C@@H]2CC[C@]2(C)C(c3cccnc3)=CC[C@@H]12` [ABIRATERONE]: the AC50 in assay [2] is > 30 µM; in assay [3] it was > 10 µM; in assay [4] it was > 10 µM; in assay [5], > 30 µM; in assay [6], > 30 µM.
With `CN(C)C(=O)Oc1cc(OC(=O)N(C)C)cc(C(O)CNC(C)(C)C)c1` (configuration not stated) [BAMBUTEROL], the concentration at half-maximal activity (AC50) in assay [2] and in assay [5] was > 30 µM in each case.
As for `C[C@H]1C[C@H]2[C@@H]3CCC4=CC(=O)C=C[C@]4(C)[C@@]3(Cl)[C@@H](O)C[C@]2(C)[C@@]1(O)C(=O)CO` [BECLOMETHASONE], the half-maximal activity concentration (AC50) in assay [2] was > 30 µM.
Take `C[C@@H](O)[C@H]1C(=O)N2C(C(=O)[O-])=C(SC3Cn4cnc[n+]4C3)[C@H](C)[C@H]12` (some centres not stated) [BIAPENEM]: in assay [1], the concentration at half-maximal activity (AC50) was > 30 µM.
Still for that read-out and setting: the same measure for `Cc1nnc(SCC2=C(C(=O)O)N3C(=O)[C@@H](NC(=O)Cn4cc(Cl)c(=O)c(Cl)c4)[C@H]3SC2)s1` [CEFAZEDONE]: > 30 µM.
For the compound `NS(=O)(=O)c1cc(C2(O)NC(=O)c3ccccc32)ccc1Cl` (configuration not stated) [CHLORTHALIDONE], the AC50 in assay [3], in assay [4] and in assay [5] was > 10 µM each time.
Regarding `C[C@@H]1CCC[C@H](C)N1NC(=O)c1ccc(Cl)c(S(N)(=O)=O)c1` [CLOPAMIDE], the AC50 in assay [2], in assay [3], in assay [4], in assay [7], in assay [5] and in assay [6] was > 30 µM throughout.
Turning to `COc1ccc2c(c1)[C@]13CCCC[C@@H]1[C@H](C2)N(C)CC3` [DEXTROMETHORPHAN], the AC50 in assay [2] was > 30 µM; in assay [3], > 10 µM; in assay [4] it was > 10 µM; in assay [5], > 30 µM.
With `O=c1oc2ccccc2c(O)c1Cc1c(O)c2ccccc2oc1=O` [DICUMAROL], the AC50 in assay [3] and in assay [4] was > 10 µM in each case.
For `O=C(CCCN1CC=C(n2c(=O)[nH]c3ccccc32)CC1)c1ccc(F)cc1` [DROPERIDOL], in assay [1], the AC50 was > 30 µM.
`CCn1cc(C(=O)O)c(=O)c2cc(F)c(N3CCNCC3)nc21` [ENOXACIN]: the half-maximal activity concentration (AC50) was > 30 µM in assay [2], > 10 µM in assay [3] and > 10 µM in assay [4].
Turning to `O=C(O)CSCC(=O)NC1CCSC1=O` (configuration not stated) [ERDOSTEINE], the concentration at half-maximal activity (AC50) in assay [2], in assay [3], in assay [7] and in assay [6] was > 30 µM each time.
For `COc1cccc(N(C)C(=S)Oc2ccc3c(c2)CCCC3)n1` [LIRANAFTATE], the AC50 in assay [2], in assay [3], in assay [7] and in assay [6] was > 30 µM throughout.
As for `Nc1nc(N)nc(Nc2ccc([As]3SCC(CO)S3)cc2)n1` (configuration not stated) [MELARSOPROL], the AC50 in assay [1] is > 30 µM.
As for `C#C[C@]1(O)CC[C@H]2[C@@H]3CCc4cc(OC)ccc4[C@H]3CC[C@@]21C` [MESTRANOL], the AC50 in assay [3] was > 10 µM; in assay [4], > 10 µM; in assay [5], 0.516 µM.
Take `CCC(=O)O[C@@H]1CC(=O)O[C@H](C)C/C=C/C=C/[C@H](OC(C)=O)[C@H](C)C[C@H](CC=O)[C@H](O[C@@H]2O[C@H](C)[C@@H](O[C@H]3C[C@@](C)(OC(C)=O)[C@@H](OC(=O)CC)[C@H](C)O3)[C@H](N(C)C)[C@H]2O)[C@H]1OC` [MIOCAMYCIN]: the AC50 in assay [1] is > 30 µM.
With `N=C(N)c1ccc2cc(OC(=O)c3ccc(N=C(N)N)cc3)ccc2c1` [NAFAMOSTAT], the AC50 was > 30 µM in assay [2], > 30 µM in assay [3], > 30 µM in assay [7] and 8.2 µM in assay [6].
As to `CNC(=O)Oc1ccc2c(c1)[C@]1(C)CCN(C)[C@@H]1N2C` [PHYSOSTIGMINE], the AC50 in assay [2], in assay [3], in assay [4] and in assay [5] was > 30 µM throughout.
On to `C1CNCCN1` [PIPERAZINE], for which, in assay [1], the AC50 is > 30 µM.
As for `O=C(O)c1cc(O)c2c3nc4ccccc4oc-3cc(=O)c2n1` [PIRENOXINE], the concentration at half-maximal activity (AC50) in assay [2], in assay [3], in assay [4], in assay [7], in assay [5] and in assay [6] was > 30 µM throughout.
Turning to `NS(=O)(=O)c1cc(C(=O)O)cc(N2CCCC2)c1Oc1ccccc1` [PIRETANIDE], the AC50 in assay [2] is > 30 µM; in assay [3], > 30 µM; in assay [4], > 30 µM; in assay [7], > 30 µM; in assay [5] it was > 30 µM; in assay [6] it was 0.92 µM.
On to `CNCCCC1c2ccccc2C=Cc2ccccc21` [PROTRIPTYLINE], for which the half-maximal activity concentration (AC50) in assay [3], in assay [4] and in assay [5] was > 10 µM in each case.
As for `CC(C)=CCOc1ccc(/C=C/C(=O)c2ccc(OCC=C(C)C)cc2OCC(=O)O)cc1` [SOFALCONE], the concentration at half-maximal activity (AC50) in assay [2], in assay [3], in assay [7], in assay [5] and in assay [6] was > 30 µM in each case.
With `O=C(CCCN1CCC2(CC1)C(=O)NCN2c1ccccc1)c1ccc(F)cc1` [SPIPERONE], the AC50 was > 30 µM in assay [2], > 30 µM in assay [5] and 0.0086 µM in assay [6].
For `CCSc1ccc2c(c1)N(CCCN1CCN(C)CC1)c1ccccc1S2` [THIETHYLPERAZINE], the concentration at half-maximal activity (AC50) in assay [3] and in assay [7] was > 30 µM in each case.
With `CN(C)c1cc(NC(=O)CNC(C)(C)C)c(O)c2c1C[C@H]1C[C@H]3[C@H](N(C)C)C(O)=C(C(N)=O)C(=O)[C@@]3(O)C(O)=C1C2=O` [TIGECYCLINE], the concentration at half-maximal activity (AC50) in assay [2], in assay [3], in assay [7], in assay [5] and in assay [6] was > 30 µM throughout.
Turning to `OCCN1CCN(CC/C=C2/c3ccccc3Sc3ccc(Cl)cc32)CC1` [ZUCLOPENTHIXOL], the AC50 was > 10 µM in assay [3]; 6.4 µM in assay [4]; > 10 µM in assay [7]; > 10 µM in assay [5]; 8.4 µM in assay [6].

Broadly, the AC50 is the midpoint of the concentration-response curve, whichever way the signal moves. Read a high AC50 as activity only at high concentration.

For the origin of these results see ChEMBL document CHEMBL5291721, “A preclinical secondary pharmacology resource illuminates target-adverse drug reaction associations of marketed drugs” (Nat Commun, 2023).
